Measured values from PMC10732280 (2023).

Key:
[1] = tested on: S100P i-motif (DNA, i motif) TCCCAACCCCACTGTCCCACCCT; assay: CD melting; conditions: K+ 100 mM, Li+ 10 mM; 10 mM lithium cacodylate pH 5.5; 10 μM DNA; 50 μM compound (5 eq.); destabilising
[2] = tested on: ILPR i-motif (DNA, i motif) TGTCCCCACACCCCTGTCCCCACACCCCTGT; assay: CD melting; conditions: K+ 100 mM, Li+ 10 mM; 10 mM lithium cacodylate pH 5.5; 10 μM DNA; 50 μM compound (5 eq.); destabilising
[3] = tested on: hTelo i-motif (DNA, i motif) TAACCCTAACCCTAACCCTAACCC; assay: CD melting; conditions: K+ 100 mM, Li+ 10 mM; 10 mM lithium cacodylate pH 5.5; 10 μM DNA; 50 μM compound (5 eq.); destabilising
[4] = tested on: S100P i-motif (DNA, i motif) TCCCAACCCCACTGTCCCACCCT; assay: UV-vis titration of ligand with DNA; conditions: K+ 100 mM, Li+ 10 mM; 10 mM lithium cacodylate pH 5.5; 5 μM ligand; analysis method 1 (method 2: 10.8 ± 2.9)
[5] = tested on: S100P G-quadruplex (DNA, G4) AGGGTGGGACAGTGGGGTTGGGA; assay: UV-vis titration of ligand with DNA; conditions: K+ 100 mM, Li+ 10 mM; 10 mM lithium cacodylate; DNA at pH 7, ligand stock buffer pH 5.5; analysis method 1 (method 2: 1.5 ± 0.2)
[6] = tested on: S100P i-motif (DNA, i motif) TCCCAACCCCACTGTCCCACCCT; assay: CD titration, Hill fit of ellipticity at 288 nm; conditions: K+ 100 mM, Li+ 10 mM; 10 mM lithium cacodylate pH 5.5; 10 μM DNA; i-motif unfolding; Hill n 2.3 ± 0.2
[7] = tested on: DAP i-motif (DNA, i motif) CCCCCGCCCCCGCCCCCGCCCCCGCCCCCG; assay: CD melting; conditions: K+ 100 mM, Li+ 10 mM; 10 mM lithium cacodylate pH 5.5; 10 μM DNA; 50 μM compound (5 eq.); destabilising

- ΔTm [1]: −20.7 ± 1.1 °C
- ΔTm [2]: -18.8 ± 0.4 °C
- ΔTm [3]: -16.6 ± 0.7 °C
- Kd [4]: 11.7 ± 2.9 µM
- Kd [5]: 2.0 ± 0.3 µM
- [D]50% [6]: 31 ± 4 µM
- ΔTm [7]: -21.6 ± 1.1 °C
Structure (SMILES): O=C1c2cc(-c3ccc(CN4CCCC4)cc3)c3c4c(cc(NCCN5CCCC5)c(c24)C(=O)N1CCCN1CCOCC1)C(=O)N(CCCN1CCOCC1)C3=O
